Data: PubChem BioAssay (NCI)
“And” between values parts separate entries of the source, which are not always exact repeats. Identical values can stand only once.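 Exposure lasted 48 hours, with cells grown in 96-well plates and compounds tested at five concentrations. Here, GI50 denotes the concentration required for 50% inhibition of growth. At the TGI there is no net growth.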

Tests used:
Experiment in all cases: NCI-60 cell line screen, 48 h
786-0 renal = tested on: 786-0 renal
DMS 114 small cell lung = tested on: DMS 114 small cell lung
DMS 273 small cell lung = tested on: DMS 273 small cell lung
EKVX NSCLC = tested on: EKVX NSCLC
HL-60(TB) leukemia = tested on: HL-60(TB) leukemia
HOP-62 NSCLC = tested on: HOP-62 NSCLC
NCI-H23 lung = tested on: NCI-H23 lung
SF-539 CNS = tested on: SF-539 CNS
TK-10 renal = tested on: TK-10 renal
UO-31 renal = tested on: UO-31 renal

Row | SMILES | GI50 (786-0 renal) [µM] | TGI (786-0 renal) | GI50 (DMS 114 small cell lung) [µM] | TGI (DMS 114 small cell lung) [µM] | GI50 (DMS 273 small cell lung) [µM] | TGI (DMS 273 small cell lung) [µM] | GI50 (EKVX NSCLC) [µM] | TGI (EKVX NSCLC) | GI50 (HL-60(TB) leukemia) [µM] | TGI (HL-60(TB) leukemia) | GI50 (HOP-62 NSCLC) [µM] | TGI (HOP-62 NSCLC) | GI50 (NCI-H23 lung) [µM] | TGI (NCI-H23 lung) | GI50 (SF-539 CNS) [µM] | TGI (SF-539 CNS) | GI50 (TK-10 renal) [µM] | TGI (TK-10 renal) | GI50 (UO-31 renal) [µM] | TGI (UO-31 renal)
1 | CC[O-].CC[O-].[O-]c1ccccc1C=NC12CC3CC(CC(C3)C1)C2.[O-]c1ccccc1C=NC12CC3CC(CC(C3)C1)C2.[Ti+4] | > 100 | > 100 µM | 23.4 | > 100 | > 100 | > 100 | > 100 | > 100 µM | 52.4 | > 100 µM | > 100 | > 100 µM | 50 | > 100 µM | > 100 | > 100 µM | > 100 | > 100 µM | 92.3 | > 100 µM
2 | O=c1c(-c2cccc3ccccc23)c(-c2cccc3ccccc23)c1=O |  | 12.7 µM |  | 13.2 |  | 13.2 |  | > 39.4 µM |  | 4.87 µM |  | 49.1 µM |  | 9.27 µM |  | 4.75 µM |  | > 100 µM |  | > 100 µM
3 | CS(=O)(=O)N(CCC#N)c1ccc(/C=C2\N=C(c3ccccc3Cl)OC2=O)cc1 |  | > 100 µM |  | > 100 |  | > 100 |  | > 100 µM |  | > 100 µM |  | > 100 µM |  | > 100 µM |  | > 100 µM |  | > 100 µM |  | > 100 µM
4 | CN(C)C(=C1C(Br)=C(Br)C(Br)=C1Br)N(C)C |  | > 100 µM |  | > 100 |  | > 100 |  | > 100 µM |  | > 100 µM |  | > 100 µM |  | > 100 µM |  | > 100 µM |  | > 100 µM |  | > 100 µM
5 | O=C1CN=C(c2ccccc2)c2ccncc2N1 |  | > 100 µM |  | > 100 |  | > 100 |  | > 100 µM |  | > 100 µM |  | > 100 µM |  | > 100 µM |  | > 100 µM |  | > 100 µM |  | > 100 µM
6 | COC1C(OC(=O)/C=C/C=C/C=C/C=C/C(=O)O)CCC2(CO2)C1C1(C)OC1CC=C(C)C (stereo not drawn) | 0.31 | > 100 µM |  | > 100 |  | > 100 | 0.436 | > 82.9 µM | 0.187 | 70.6 µM | 0.198 | > 100 µM | 0.193 | > 83.7 µM | 0.347 | > 100 µM |  | > 100 µM |  | > 82.2 µM
7 | CN(N=O)C(=O)NC(CCCCNC(=O)OCc1ccccc1)C(=O)OCc1ccccc1 (stereo not drawn) |  | 33.6 µM |  | 72.6 |  | > 100 |  | > 100 µM |  | 48.7 µM |  | 79.6 µM |  | 51.3 µM |  | 32.7 µM |  | > 100 µM |  | 38.3 µM
8 | COc1ccc2c(c1[N+](=O)[O-])CC[C@@H]1[C@@H]2CC[C@]2(C)C(=O)CC[C@@H]12 | > 25 | > 562 µM |  | 25 |  | > 25 | > 580 | > 1000 µM | > 1000 |  | 322 | > 6.71 µM and 639 µM | 679 | > 1000 µM | 300 | > 890 µM | 577 | > 1000 µM | > 824 | > 1000 µM
9 | CN(c1ccccc1)c1nc(=[N+](C)C)ss1 |  | > 100 µM |  | > 100 |  | > 100 |  | > 100 µM |  | > 100 µM |  | > 100 µM |  | > 100 µM |  | > 100 µM |  | > 100 µM |  | > 100 µM
10 | CCC(=O)N1C(=S)SC[C@H]1C(=O)OC |  | > 100 µM |  | > 100 |  | > 100 |  | > 100 µM |  | > 100 µM |  | > 100 µM |  | > 100 µM |  | > 100 µM |  | > 100 µM |  | > 100 µM
11 | CN(C)CCN1C(=O)c2cccc3cc(N)cc(c23)C1=O | 4.16 | > 81.6 µM and 23 µM |  | 12.7 |  | 8.22 | 4.22 | 39.7 µM and 15.3 µM | 5.29 | 59.2 µM and 16.2 µM | 3.08 | 18.8 µM and 11.4 µM | 3.43 | 22.7 µM and 14.1 µM |  | 18.2 µM and 14.7 µM | 3.27 | 24.9 µM and 14.4 µM | 2.09 | 43.1 µM and 12.8 µM
12 | O=C(c1ccccc1)c1nc2ccc(Cl)cc2cc1C(Br)Br |  | 0.378 µM |  | 4.02 |  | 0.966 |  | 1.69 µM |  | 1.07 µM |  | 1.94 µM |  | 1.11 µM |  | 0.537 µM |  | 1.83 µM |  | 1.27 µM
13 | COc1ccc(C(O)C(c2ccc(OCc3ccccc3)cc2)c2ccc(OCc3ccccc3)cc2)cc1 (stereo not drawn) |  | > 100 µM |  | > 100 |  | > 100 |  | > 100 µM |  | > 100 µM |  | > 100 µM |  | > 100 µM |  | > 100 µM |  | > 100 µM |  | > 100 µM
14 | O=C1/C(=C/c2cc(O)c(O)c(O)c2)Oc2cc(O)cc(OC3OC(CO)C(O)C(O)C3O)c21 (stereo not drawn) |  | > 100 µM |  | > 100 |  | 3.67 |  | > 100 µM |  | 43.1 µM |  |  |  | 80.9 µM |  | > 100 µM |  | > 100 µM |  | > 100 µM
15 | O=[N+]([O-])c1ccc(Cl)c(C2CC(c3cccc4ccccc34)=Nc3ccccc3S2=O)c1 (stereo not drawn) |  | 28.5 µM |  | 41.1 |  | > 100 |  | > 100 µM |  | 34.1 µM |  | > 62.6 µM |  | 17.4 µM |  | 19.1 µM |  | 98.2 µM |  | > 46.7 µM
16 | O=C1c2ccccc2C(=O)N1C/C=N/NS(=O)(=O)c1cccc([N+](=O)[O-])c1 |  | > 100 µM |  | > 100 |  | > 100 |  | > 100 µM |  | > 100 µM |  | > 100 µM |  | > 100 µM |  | > 100 µM |  | > 100 µM |  | > 100 µM
17 | O=S(=O)(c1ccccc1)N1CCC1c1ccccc1 (stereo not drawn) |  | > 100 µM |  | > 100 |  | > 100 |  | > 100 µM |  | 85.1 µM |  | > 100 µM |  | > 100 µM |  | > 100 µM |  | > 100 µM |  | > 100 µM
18 | CCOc1ccc2c(c1)[n+]([O-])c(C(N)=O)c(N)[n+]2[O-] |  | > 100 µM |  | > 100 |  | > 100 |  | > 100 µM |  | > 100 µM |  | > 100 µM |  | > 100 µM |  | > 100 µM |  |  |  | > 100 µM
19 | CC1=NC2(C(=O)O)C3(C(=O)O)N=C(C)OC3(C(F)(F)F)C2(C(F)(F)F)O1 (stereo not drawn) |  | > 100 µM |  | > 100 |  | > 100 |  | > 100 µM |  | > 100 µM |  | > 100 µM |  | > 100 µM |  | > 100 µM |  | > 100 µM |  | > 100 µM
